Data set [1] can be described thus: Solubility of colchicine in different types of pressure-sensitive adhesives. Format: physicochemical. As to conditions: for State in the 4098 pressure-sensitive adhesive: 0 days; for Stability (crystallization or not) in the 4098 pressure-sensitive adhesive: room temperature for 4 months. How it is done:
Colchicine with different contents was dissolved in pressure-sensitive adhesive systems with different properties.

Data set [2] is described as follows: Solubility test of colchicine in solvents. The class given is physicochemical. The note with it: thermodynamic from solid, 25° C. The method, then: About 2 g of the colchicine raw material was weighed and placed in a 100 ml brown volumetric flask, into which 10 ml of a solvent was added. The mixture was uniformly mixed, placed in a thermostatic oscillator with a water bath at 25° C., and observed periodically, into which the raw material was continuously added once the solution became clear. […] After the saturated solution was centrifuged in a centrifuge, the supernatant was taken and diluted to a suitable concentration, the concentration of which was then determined using the external standard method, and the solubility was calculated.

The structures appear in SMILES notation. ≈ marks a conversion by molar mass, not a printed value.

The term solubility denotes how much of the substance goes into solution per volume. For the compound `COc1cc2c(c(OC)c1OC)-c1ccc(OC)c(=O)cc1[C@@H](NC(C)=O)CC2` [colchicine, N-(5,6,7,9-tetrahydro-1,2,3,10-tetramethoxy-9-oxobenzo[α]cycloheptatrienocycloheptatrien-7-yl)-(S)-acetamide], the “State in the 4098 pressure-sensitive adhesive” value in data set [1] (content higher than 5%) is “semitransparent”; in data set [1] (content of colchicine 5% or less), “transparent”. In addition, the “Stability (crystallization or not) in the 4098 pressure-sensitive adhesive” value in data set [1] (content 5% or less) is on record as “no crystallization is found”; in data set [1] (content more than 5%) it was “crystallization is precipitated”. Also, the “Highest solubility of colchicine in typical acrylic pressure-sensitive adhesives” value in data set [1] (without a permeation enhancer) was “about 5%”. The solubility at 24 h in data set [2] (1 M triethanolamine (TEOA) in ethanol, organic solvent or mixture, 1M solution of TEOA (triethanolamine) in ethanol) was 740 mg/mL (≈ 1850 mM); in data set [2] (organic solvent or mixture, DGME (diethylene glycol monoethyl ether)), 350 mg/mL (≈ 876 mM); in data set [2] (organic solvent or mixture, Ethanol:ethyl acetate (1:1, v/v)), 380 mg/mL (≈ 951 mM); in data set [2] (organic solvent or mixture, Ethyl acetate) it was 0.48 mg/mL (≈ 1.2 mM); in data set [2] (organic solvent or mixture, ethanol), 590 mg/mL (≈ 1480 mM); in data set [2] (water), above 1000 mg/mL.

The values above are taken from US20260014095A1, “PATCH […] PREPARATION METHOD AND USE THEREOF” (DEMOTECH.INC., priority 2022, published 2026).
